From the SangsterLogP compilation

Assays:
[1] = method code SF-GLC, from DOI: 10.1016/s0003-2670(00)84505-5
[2] = not given; remark: listed apart in the source
[3] = method code SF-AS, from DOI: 10.1002/etc.5620181211
[4] = method code SF, from DOI: 10.1016/s0928-0987(00)00099-3, PMID: 10915965; details: pH 5.0
[5] = pH 7.3
[6] = method code SF-AS, from DOI: 10.1016/0378-5173(80)90061-7
[7] = not given; remark: listed apart in the source
[8] = method code SF, from DOI: 10.2307/3575246, PMID: 7367588
[9] = not given; remark: listed apart in the source
[10] = not given; remark: listed apart in the source
[11] = not given; remark: listed apart in the source
[12] = method code SF-AS, from DOI: 10.1016/0731-7085(96)01773-6, PMID: 8877846
[13] = not given; remark: listed apart in the source
[14] = method code SF-GLC, from DOI: 10.1016/0166-445x(88)90052-5
[15] = method code SF, from DOI: 10.1016/0165-1218(78)90089-7, PMID: 362190
[16] = not given; remark: listed apart in the source
[17] = not given; remark: listed apart in the source
[18] = not given; remark: listed apart in the source
[19] = from Wang, L.; Xu, L.; Xu, O.; Tian, L.; Zheng, Z. (1989). Simultaneous determination of partition coefficients and acid dissociation constants of some organic dibasic acids and diacidic bases in the …
[20] = not given; remark: listed apart in the source
[21] = method code SF, from DOI: 10.1016/0006-2952(91)90449-f, PMID: 1930261; details: pH 2.0
[22] = method code SF-AS, from Lee, B.; Shin, J.; Lim, M.; Jang, T.; Park, J.; Kim, K.; Kang, W. (1997). Partition Property of 5-Nitrothiopyrimidine Nucleoside. Bull Korean Chem Soc, 18(7)734-736.; details: pH 7.0
[23] = not given; remark: listed apart in the source
[24] = not given; remark: listed apart in the source
[25] = not given; remark: listed apart in the source
[26] = not given; remark: listed apart in the source
[27] = not given; remark: listed apart in the source
[28] = method code SF-AS, from DOI: 10.1248/cpb.40.925
[29] = method code SF-AS, from DOI: 10.1111/j.2042-7158.1989.tb06480.x, PMID: 2570831; details: pH 7.4
[30] = method code SF-HPLC, from DOI: 10.1016/0378-5173(84)90193-5; details: pH 4.0
[31] = method code SF-AS, from DOI: 10.1016/0378-5173(93)90388-v
[32] = method code SF-HPLC, from DOI: 10.1016/j.microc.2003.08.005
[33] = method code SF-AS, from DOI: 10.1248/cpb.17.2558
[34] = method code SF-AS, from DOI: 10.1016/0041-008x(67)90079-8
[35] = method code SF-AS, from DOI: 10.1016/s0021-9673(01)89384-5
[36] = method code SF-TN, from DOI: 10.2116/analsci.13.897; details: pH 2.0
[37] = from KURIHARA, Norio.; Fujita, Toshio. (1983). Composition of Partition Coefficients of Polychlorinated Hydrocarbons (Commemoration Issue Dedicated to Professor Yuzo Inouye on the Occasion of his …
[38] = not given; remark: listed apart in the source
[39] = method code SF-AS, from DOI: 10.1016/j.bmc.2008.07.057, PMID: 18706818; details: pH 7.4
[40] = method code SF-RC, from DOI: 10.1016/s0969-8051(01)00233-5, PMID: 11518650
[41] = method code SF-GLC, from DOI: 10.1002/etc.5620080910
[42] = method code SF, from Huang, Q.; Wang, L.; Han, S.; Wang, G.; Gao, H. (1993). Quantitative relation between molecular structures and the hydrophobic parameters of halogenated arenes. Chemical Journal of Chinese …

COc1cc(Cl)c(Cl)c(Cl)c1O
logP [1]: 3.72

COc1cc(NCc2ccc3nc(N)nc(N)c3c2C)cc(OC)c1OC
logD (pH 13.0): 2.55

c1ccc(Oc2ccccc2)cc1
logP [2]: 3.87

Nc1cccnc1Cl
logP [3]: 0.04

ClC1C(Cl)C(Cl)C(Cl)C(Cl)C1Cl (stereo unspecified)
logP [2]: 3.67

C(=C\c1ccccn1)/c1ccccc1
logP [3]: 1.96

COP(=O)(OC)C(C)(O)P(=O)(OC)OC
logD [4]: -1.39

O=c1cc(CO)occ1O
logD [5]: -0.64

COC(=O)CCCO
logP [6]: -0.06

Nc1ccc([N+](=O)[O-])cn1
logP [7]: 0.65

O=C(Cn1ccnc1[N+](=O)[O-])NCC(O)CO (stereo unspecified)
logP [8]: -1.85

CCCC(CO)N1C=NC2C(N)=NC=NC21 (stereo unspecified)
logP [9]: 0.66

Nc1cc(Cl)ccc1Cl
logP [10]: 2.62

On1ccccc1=S
logP [11]: 0.4

Oc1c(Cl)cc(Cl)c(Cl)c1Cl
logP [1]: 4.3

Cn1cccc(O)c1=O
logD [5]: -0.4

O=C1O[C@H]([C@@H](O)CO)C(O)=C1O
logP [12]: -1.84

CCC(C)CC
logP [13]: 2.8

C1OC1C1CO1 (stereo unspecified)
logP [14]: -0.28

O=[N+]([O-])c1nccn1CC(O)CCl (stereo unspecified)
logP [15]: 0.15

CCCCC(C)=O
logP [16]: 1.39

C1CCCC1
logP [17]: 2.8

CS(=O)CCn1ccnc1[N+](=O)[O-] (stereo unspecified)
logP [8]: -1.22

O=[N+]([O-])c1ccccc1
logP [18]: 1.86

Nc1cccc(C(=O)O)c1
logP [19]: 0.65

CCCCC1CO1 (stereo unspecified)
logP [14]: 1.95

Cc1ccc([N+](=O)[O-])cc1
logP [18]: 2.4

CCOC(C)=O
logP [20]: 0.53

CN1C(=O)NC(=O)C(=O)C1=O
logD [21]: -1.04

O=[N+]([O-])c1c[nH]c(=S)[nH]c1=S
logD [22]: 0.52

Clc1ccncc1
logP [23]: 1.37

CCN(CC)C(=O)SCc1ccc(Cl)cc1
logP [24]: 3.78

Oc1cc(Cl)ccc1Cl
logP [25]: 3.06

Oc1ccc(Cl)cc1
logP [26]: 2.43

Nc1c([N+](=O)[O-])ccc2ncccc12
logP [7]: 1.61

C=CCCCCCC
logP [27]: 4.72

Cn1cccc1
logP [28]: 1.15

Cn1cnc2c(N)ncnc21
logD [29]: -0.03

COc1ccccc1
logP [26]: 2.15

CCCCCCCCC(C)=O
logP [17]: 3.78

O=c1[nH]cnc2nc[nH]c12
logP: -0.96

CC(=O)n1c(=O)[nH]cc(F)c1=O
logD [30]: -0.34

Cc1cc(O)no1
logP [24]: 0.26

O=c1[nH]cc([N+](=O)[O-])c(=O)[nH]1
logD [22]: -1.38

CC1CCC(=O)N1C (stereo unspecified)
logP [31]: -0.07

Cc1ccc2[nH]nnc2c1
logP [32]: 1.89

Cc1cccc(C)n1
logP [16]: 1.63

COC(=O)c1ccoc1
logP [28]: 1.28

CNc1ccc(S(N)(=O)=O)cc1
logD ([33]; pH 5.5): 0.08

Clc1cc(Cl)c(Cl)nc1Cl
logP [34]: 3.32

Nc1ncnc2[nH]cnc12
logD [29]: -0.05

c1ccc(-c2nccnn2)cc1
logP [35]: 1.71

O=C1CCCO1
logP [6]: -0.31

COP(=O)(OC)C(C)(OC(C)=O)P(=O)(OC)OC
logD [4]: -1.05

Nc1cccc(Cl)c1Cl
logP [10]: 2.51

O=C(O)CCC(=O)O
logP [19]: -0.61

O=C(O)C1CC=CCC1 (stereo unspecified)
logD [36]: 1.69

ClC1=CC(Cl)C(Cl)C(Cl)C1 (stereo unspecified)
logP [37]: 3.52

CCCCOCC
logP [9]: 2.03

CCCC(C)O (stereo unspecified)
logP [38]: 1.34

CC1(C(N)=O)CCC=[N+]1[O-] (stereo unspecified)
logD [39]: -1.8

CCN(CC)CCF
logP [40]: 0.94

O=[N+]([O-])c1cc(Cl)c(Cl)c(Cl)c1Cl
logP [41]: 3.93

N#Cc1ccc([N+](=O)[O-])n1CCO
logP [15]: 0.6

C#CCN(C)C(C)Cc1ccc(F)cc1 (stereo unspecified)
logP [12]: 3

CCC1(C(N)=O)CCC=[N+]1[O-] (stereo unspecified)
logD [39]: -1.25

O=[N+]([O-])c1c(Cl)cc(Cl)cc1Cl
logP [41]: 3.69

NS(=O)(=O)c1ccc(Cl)c(Cl)c1
logD ([33]; pH 2.0): 1.44

Clc1ccc(Cl)nc1
logP [34]: 2.4

CN(C)CCF
logP [40]: 0.36

CN1C(=O)C(=O)C(=O)N(C)C1=O
logD [21]: -0.57

CCCC=CC(=O)O
logD [36]: 1.69

Clc1ccc(Br)cc1
logP [42]: 3.83

O=Cc1ccncc1
logP [23]: 0.23

Cc1ccc(C)o1
logP [35]: 2.24

CCCCOC(C)=O
logP [20]: 1.69

CCC(C)O (stereo unspecified)
logP [38]: 0.81

CCCCCBr
logP [27]: 3.32

O=C(O)c1ccccn1
logP [11]: -1

Brc1ccccc1Br
logP [42]: 4.07

CCCC(=O)n1c(=O)[nH]cc(F)c1=O
logD [30]: 0.67

Clc1ccc2[nH]nnc2c1
logP [32]: 2.17

Oc1cccc(F)c1
logP [25]: 1.82

C1CCCCCCC1
logP [13]: 3.28

Cl[C@@H]1CCCC[C@@H]1Cl
logP [37]: 3.18

CCN1CCCC1=O
logP [31]: -0.04
